Where “and” joins values, the source holds several entries; their conditions need not be identical. Identical values can stand only once.
Test system: 282377-053-R-J1-PDC tumor spheroids, viability
Assay: Anticancer human tumor 282377-053-R-J1-PDC patient-derived colon adenocarcinoma cell line growth inhibition [TAK]
Settings: spheroids with HUVEC and MSC; for viability, T/C: stronger effect = lower value
From the text: Combinatorial screen of targeted agents with TAK-243 and ipatasertib in multi-cell type tumor spheroids
A high-throughput screen of multi-cell type tumor spheroids was designed to identify active combinations of targeted small molecules and TAK-243 or ipatasertib. Complex spheroids include a stromal component modeled by human endothelial cells (HUVEC) and fibroblasts modeled by human mesenchymal stem cells (MSCs). The concentration ranges selected for each drug and investigational agent were based upon clinically achievable concentrations if the clinical Cmax of the agent was known.
Compounds. The drugs and investigational agents: TAK-243 (785004), ipatasertib (767898), everolimus (733504), selumetinib (741078), bortezomib (756655), trametinib (758246), ixazomib (758254), vemurafenib (761431), dabrafenib (764134), sapanisertib (764658), alpelisib (765974), and copanlisib (816437), were obtained from the National Cancer Institute (NCI) Developmental Therapeutics Program Chemical Repository. The FDA-approved anticancer drug set is available from the NCI Developmental Therapeutics Program. […] The stock solutions were prepared in dimethyl sulfoxide (DMSO, Sigma-Aldrich, St. Louis, MO, cat. D2650) at 800-fold the tested concentration and stored at -70 degrees C prior to their use. All drugs and investigational agents were tested over a range starting from a high concentration at or near the clinical Cmax and decreasing in half-log increments. If the clinical Cmax for an agent had not been determined, the highest concentration tested was 10 microM.
NCI60 Cell Culture. NCI60 cell lines were obtained from the NCI Developmental Therapeutics Program Tumor Repository. For each lot of cells, the Repository performed Applied Biosystems AmpFLSTR Identifiler testing with PCR amplification to confirm consistency with the published Identifier STR profile for each cell line. Cells were kept in continuous culture for no more than 20 passages. The optimal seeding densities for each of the cell lines at each time point assessed were determined prior to performing the concentration response studies. Briefly, the NCI60 human tumor lines were grown as monolayers in RPMI 1640 medium supplemented with 10% FBS and 2 mmol/L L-glutamine.
An additional 2 lines were from the NCI60 cell line panel including melanomas, MALME-3M and SK-MEL-2. Pooled donor human umbilical vein endothelial cells (HUVEC, Lonza, cat. CC-2519) and human mesenchymal stem cells (hMSC, Lonza, cat. PT-2501) were purchased from Lonza (Walkersville, MD).
PDMR cell lines were grown in complete medium (DC medium): Dulbecco's modified Eagle's medium (DMEM)/F12 supplemented with 5% fetal bovine serum (FBS), 2 mM L-glutamine, 100 U/mL penicillin and 100 µg/ml streptomycin, 0.4 µg/ml hydrocortisone, 10 ng/ml epidermal growth factor (EGF) recombinant human protein, 24 µg/mL adenine, and 0.1 mg/mL primocin. During culture from frozen stock vials, PDMR cells were cultured in the same medium containing 10 µM Y-27632 (see Table 3). The PDCs were cultured in complete DMEM/F12 media without 10 microM Y-27632 dihydrochloride for at least two passages prior to the screen. The pooled donor HUVEC and hMSC were cultured in endothelial cell growth medium 2 (PromoCell, Heidelberg, Germany, cat. C-22011) and mesenchymal stem cell growth medium 2 (PromoCell, cat. C-28009), respectively. For all experiments, HUVEC and hMSC were used at passages </=5.
For the pre-screen, cell seeding densities were determined from a titration spanning the range from 5,000 to 313 cells per well. The mct-spheroids including 60% malignant cells, 25% HUVEC and 15% MSC dispensed as a mixture into U-bottom Ultra-Low Attachment 384-well plates (Corning, NY)
High-throughput Drug Combination Screening.
Prior to their inoculation into 384-well plates, malignant cells, HUVEC, and hMSC were removed from T flasks using TrypLE express (Thermo Fisher Scientific, cat. 12605036) and harvested by centrifugation for 5 min at 233 x g. […]
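Further: spheroids exposed to drugs for seven days before readout.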

`CC(=O)Nc1cccc(-n2c(=O)n(C3CC3)c(=O)c3c(Nc4ccc(I)cc4F)n(C)c(=O)c(C)c32)c1` + CC(C)NCC(C(=O)N1CCN(c2ncnc3c2C(C)CC3O)CC1)c1ccc(Cl)cc1 showed an IC50 (curve of first compound, second compound 0.3 µM) of 2.49 nM, an IC50 (curve of first compound, second compound 0.949 µM) of 1.95 nM and an IC50 (curve of first compound, second compound 3 µM) of 1.44 nM. For the same molecule, the IC50 (curve of first compound, second compound 9.49 µM) was 1.54 nM, the IC50 (curve of first compound, second compound 30 µM) was 0.516 nM and the viability, T/C (second compound 0.3 µM, first compound 94.9 pM) was 96%. The viability, T/C (second compound 0.3 µM, first compound 0.0003 µM) was 79%, the viability, T/C (second compound 0.3 µM, first compound 0.000949 µM) was 67.5% and the viability, T/C (second compound 0.3 µM, first compound 0.003 µM) was 49.2%. For the same molecule, the viability, T/C (second compound 0.3 µM, first compound 0.00949 µM) was 24.9%, the viability, T/C (second compound 0.3 µM, first compound 0.03 µM) was 12.4% and the viability, T/C (second compound 0.949 µM, first compound 94.9 pM) was 86.8%. The viability, T/C (second compound 0.949 µM, first compound 0.0003 µM) was 76.9%, the viability, T/C (second compound 0.949 µM, first compound 0.000949 µM) was 55.2% and the viability, T/C (second compound 0.949 µM, first compound 0.003 µM) was 49.3%. It also gave a viability, T/C (second compound 0.949 µM, first compound 0.00949 µM) of 24.8%, a viability, T/C (second compound 0.949 µM, first compound 0.03 µM) of 11.8% and a viability, T/C (second compound 3 µM, first compound 94.9 pM) of 78.2%. The viability, T/C (second compound 3 µM, first compound 0.0003 µM) was 70.6%, the viability, T/C (second compound 3 µM, first compound 0.000949 µM) was 53.6% and the viability, T/C (second compound 3 µM, first compound 0.003 µM) was 40.8%. It also gave a viability, T/C (second compound 3 µM, first compound 0.00949 µM) of 26.7%, a viability, T/C (second compound 3 µM, first compound 0.03 µM) of 13.7% and a viability, T/C (second compound 9.49 µM, first compound 94.9 pM) of 75.4%. It also gave a viability, T/C (second compound 9.49 µM, first compound 0.0003 µM) of 71.7%, a viability, T/C (second compound 9.49 µM, first compound 0.000949 µM) of 56.8% and a viability, T/C (second compound 9.49 µM, first compound 0.003 µM) of 38.4%. It also gave a viability, T/C (second compound 9.49 µM, first compound 0.00949 µM) of 25.9%, a viability, T/C (second compound 9.49 µM, first compound 0.03 µM) of 12.4% and a viability, T/C (second compound 30 µM, first compound 94.9 pM) of 64%. It also gave a viability, T/C (second compound 30 µM, first compound 0.0003 µM) of 58.6%, a viability, T/C (second compound 30 µM, first compound 0.000949 µM) of 41.6% and a viability, T/C (second compound 30 µM, first compound 0.003 µM) of 27%. It also gave a viability, T/C (second compound 30 µM, first compound 0.00949 µM) of 22.9% and a viability, T/C (second compound 30 µM, first compound 0.03 µM) of 12.3%.
For `CC(=O)Nc1cccc(-n2c(=O)n(C3CC3)c(=O)c3c(Nc4ccc(I)cc4F)n(C)c(=O)c(C)c32)c1`, the viability, T/C (compound 94.9 pM) was 98.3% and 96.1%, the viability, T/C (compound 0.0003 µM) was 86.1% and 84.3% and the viability, T/C (compound 0.000949 µM) was 70.9% and 75.1%. The viability, T/C (compound 0.003 µM) was 60.2% and 62.8%, the viability, T/C (compound 0.00949 µM) was 29.5% and 37.9% and the viability, T/C (compound 0.03 µM) was 13.8% and 13.7%. The IC50 (curve of compound) was 3.89 nM and 5.29 nM.
In the case of `CC(C)(C)c1nc(-c2cccc(NS(=O)(=O)c3c(F)cccc3F)c2F)c(-c2ccnc(N)n2)s1`, the viability, T/C (compound 0.0316 µM) is reported as 85.2% and 87.2%, the viability, T/C (compound 0.1 µM) is reported as 84.1% and 87.2% and the viability, T/C (compound 0.316 µM) is reported as 78.2% and 83.8%. For the same molecule, the viability, T/C (compound 1 µM) was 78.9% and 81.5%, the viability, T/C (compound 3.16 µM) was 79% and 76% and the viability, T/C (compound 10 µM) was 69.4% and 69.9%. The IC50 (curve of compound) was greater than 10000 nM.
`CC(C)CC(NC(=O)C(Cc1ccccc1)NC(=O)c1cnccn1)B(O)O` (stereo not given) was tested, and the viability, T/C (compound 31.6 pM) was 106% and 102%, the viability, T/C (compound 0.0001 µM) was 98.4% and 102% and the viability, T/C (compound 0.000316 µM) was 99.5% and 94.6%. The viability, T/C (compound 0.001 µM) was 109% and 101%, the viability, T/C (compound 0.00316 µM) was 100% and 97.2% and the viability, T/C (compound 0.01 µM) was 93.2% and 81.1%. It also gave an IC50 (curve of compound) greater than 10 nM.
In the case of `Cn1cnc2c(F)c(Nc3ccc(Br)cc3Cl)c(C(=O)NOCCO)cc21`, the viability, T/C (compound 0.00949 µM) is reported as 89.8% and 85.2%, the viability, T/C (compound 0.03 µM) is reported as 88.6% and 82.3% and the viability, T/C (compound 0.0949 µM) is reported as 79% and 71.6%. The viability, T/C (compound 0.3 µM) was 76.2% and 72.7%, the viability, T/C (compound 0.949 µM) was 46.9% and 36.5% and the viability, T/C (compound 3 µM) was 21.5% and 17.7%. The IC50 (curve of compound) was 867 nM and 611 nM.
`CC(C)CC(NC(=O)CNC(=O)c1cc(Cl)ccc1Cl)B1OC(=O)CC(CC(=O)O)(C(=O)O)O1` (stereo not given) was tested, and the viability, T/C (compound 0.000316 µM) was 97.6% and 92.8%, the viability, T/C (compound 0.001 µM) was 95.9% and 104% and the viability, T/C (compound 0.00316 µM) was 101% and 95.3%. For the same molecule, the viability, T/C (compound 0.01 µM) was 97.9% and 101%, the viability, T/C (compound 0.0316 µM) was 93.3% and 95% and the viability, T/C (compound 0.1 µM) was 5.66% and 8.2%. The IC50 (curve of compound) was 55.8 nM and 57.5 nM.
With `CC(C)n1nc(-c2ccc3oc(N)nc3c2)c2c(N)ncnc21` the viability, T/C (compound 0.000316 µM) was 99.5% and 93.2%, the viability, T/C (compound 0.001 µM) was 99% and 92.6% and the viability, T/C (compound 0.00316 µM) was 99.7% and 91.3%. For the same molecule, the viability, T/C (compound 0.01 µM) was 89.3%, the viability, T/C (compound 0.0316 µM) was 83% and 83.3% and the viability, T/C (compound 0.1 µM) was 49.6% and 59.1%. It also gave an IC50 (curve of compound) greater than 100 nM.
With `Cc1nc(NC(=O)N2CCCC2C(N)=O)sc1-c1ccnc(C(C)(C)C(F)(F)F)c1` (stereo not given) the viability, T/C (compound 0.0316 µM) was 97.1% and 95.8%, the viability, T/C (compound 0.1 µM) was 96.6% and 101% and the viability, T/C (compound 0.316 µM) was 95.6% and 96.5%. The viability, T/C (compound 1 µM) was 93.9% and 93.5%, the viability, T/C (compound 3.16 µM) was 89.7% and 88.6% and the viability, T/C (compound 10 µM) was 85.2% and 79.1%. For the same molecule, the IC50 (curve of compound) was greater than 10000 nM.
In the case of `CC(C)NCC(C(=O)N1CCN(c2ncnc3c2C(C)CC3O)CC1)c1ccc(Cl)cc1` (stereo not given), the viability, T/C (compound 0.3 µM) is reported as 100% [middle of 10 runs], the viability, T/C (compound 0.949 µM) is reported as 92% [middle of 10 runs] and the viability, T/C (compound 3 µM) is reported as 84.9% [middle of 10 runs]. For the same molecule, the viability, T/C (compound 9.49 µM) was 81.9% [middle of 10 runs], the viability, T/C (compound 30 µM) was 69.3% [middle of 10 runs] and the IC50 (compound alone, run of 03/19/2020) was greater than 30000 nM.
